Measurements published in patent publication US20230113802A1, “COMPOSITION AND METHOD TO PREPARE LONG-ACTING INJECTABLE SUSPENSION CONTAINING MULTIPLE CANCER DRUGS” (University of Washington, priority 2020, published 2023).
Like-named read-outs stand apart in the source and are kept apart here. Marks after values point to notes of the source that are not given here.

Key:
HL-60 cells = experiment: Leukemic cell uptake of free versus DcNP-associated drug, HL-60; assay type: cell-based, human; settings: up to 4 hours
Method: FIGS. 13A-13D are a series of graphs showing the intracellular drug concentrations following incubation with free or DcNP-bound drug. Three leukemic cell lines were incubated with either free or DcNP-bound drug over four hours, and intracellular drug concentration was measured via LC-MS/MS. Both free drugs show relatively little drug uptake compared to the DcNP formulation. Free drug concentrations are roughly a quarter of the DcNP drug concentrations.
To quantify drug concentrations (both DcNP-bound and free drug), an extraction protocol was established to quantify venetoclax and zanubrutinib. In short, drug was solubilized by diluting the sample into ethyl acetate, liberating it from either the DcNP lipid matrix, mouse plasma, or both. Following centrifugation to remove organic material, the samples were dried with nitrogen gas, reconstituted in acetonitrile, and loaded onto an LC-MS/MS. Drug concentrations were quantified by comparing sample data with standard curves prepared from untreated mouse plasma spiked with known amounts of drug.
Separations were carried out on a Synergi column (100×2.0 mm) (Phenomenex, Torrance, USA). A C8 guard column (4.0×2.0 mm) was used (Phenomenex, USA). The separations were done under ambient temperature, and the flow rate was set to 0.55 ml/min. The mobile phase for the separations consisted of buffers A (water with 20 mM ammonium acetate) and B (acetonitrile). The single mobile phase ran for five minutes, and it consisted of 25% buffer A and 75% buffer B.
HL-60 cells were cultured, counted, and aliquoted into multiple 1.5 mL Eppendorf tubes. A free drug solution of ABT-199 and BGB-3111 (1:1 w/w) was added to half of the tubes, while a DcNP solution of identical drug concentrations was added to the second half of tubes. The cells in the tubes were then allowed to incubate normally. At preselected time points, one incubation tube from each group was removed from the incubator, and the cells inside were washed twice with media to remove external drug and DcNP's. Cells were then lysed with acetonitrile, and drug concentrations were quantified according to the aforementioned extraction and LC-MS/MS protocol.

[1] = Association efficiency of venetoclax and zanubrutinib with DcNP's by dialysis; assay type: physicochemical
Method: 85.4 mg DSPC, 33.6 mg DSPE-mPEG2000, 9.6 mg ABT-199, and 9.6 mg BGB-3111 were dissolved in 4 mL pre-warmed 70° C. tert-butyl alcohol. The solution was thoroughly mixed, lyophilized over 24 hrs, and reconstituted in 0.9% NaCl, 20 mM NaHCO3 buffer with trace TWEEN® 20. The resulting drug-combination, stabilized by lipid excipients and referred to as drug combination nanoparticle or DcNP's, were then filtered through an Acrodisc® CR syringe filter (0.2 μm PTFE Membrane, HPLC certified) and diluted with buffer solution to the desired concentration. Particle size was quantified using a NICOMP 380 ZLS (Zeta Potential/Particle Sizer). The extent of ABT-199 and BGB-3111 association with the DcNP particles in solution was analyzed via dialysis (6,000-8,000 molecular weight cutoff) under sink conditions; sink condition was achieved by dialyzing 200 μl of DcNP suspension against 200 mL buffer solution (1,000-fold volume change) for 4 hrs. The drug association efficiency (AE %) was determined by comparing the pre- and post-dialysis drug concentration ratios of each drug. Drug concentration was determined by the extraction drug in suspension and analyzed based on a LC-MS/MS assay as described below.
Following initial rehydration and without any sonication, particle size of the DcNP's with and without TWEEN20 was measured using the Zetasizer (FIG. 10). […] Without Tween20, DcNP size was primarily 39 nm in diameter (92%) with less than 8% of particles measuring 870 nm in diameter (FIG. 10). Particle size was determined via dynamic light scattering, and association efficiency (FIG. 11) is a normalized mass/mass ratio calculated by comparing amount of drug remaining associated with DcNP's compared to the overall amount of drug used to create the particles.

metastatic breast cancer = settings: cited from earlier work
[2] = Pharmacokinetic study of GT DcNP vs CrEL drug combination in mice (Example 1); assay type: in vivo, BALB/c mice; settings: GT 50/5 mg/kg IV; for Cmax / AUC(0-t) / t1/2apparent: plasma; for AUC(0-t): iv
Method: Mice were administered with either a CrEL drug combination or GT DcNP intravenously with doses of 50/5 mg/kg GT. […] Each group had three animals and each animal was bled once only. Retro-orbital blood collection in this study was a terminal procedure and animals were under anesthesia at the time of bleeding. After blood collection, mice were euthanized by CO2 overdose followed by cervical dislocation as the secondary method of euthanasia. Drugs in plasma were extracted and analyzed by LC-MS/MS as described below.
A liquid-liquid extraction was used to extract drugs from plasma or tissue homogenates. […] Samples were spiked by internal standards (see below) followed by the addition of acetonitrile. […] The dried samples were reconstituted in 20% methanol and 80% water in 50 μL.
Drugs were quantified by a Shimadzu HPLC system coupled to a 3200 QTRAP mass spectrometer (Applied Biosystems, Grand Island, N.Y.). The HPLC system consisted of two Shimadzu LC-20A pumps, a DGU-20A5 degasser, and a Shimadzu SIL-20AC HT autosampler. The mass spectrometer was equipped with an electrospray ionization (ESI) TurbolonSpray source. The system was operated with Analyst software, version 1.5.2 (ABSciex, Framingham, Mass.).
Chromatographic separation of drugs was achieved using a Synergi column (100×2.0 mm; 4-μm particle size) with an inline C8 guard column (4.0×2.0 mm) (Phenomenex, Torrance, Calif.). An ammonium acetate buffer/reagent alcohol gradient was used to separate components. Analytes were monitored using multiple-reaction monitoring for positive ions.

[3] = plasma concentration above which G tri-phosphate levels no longer increase; patients with leukemia; cited from earlier work
[4] = HL-60, incubation with free drug (1:1 w/w)
[5] = female, BALB/c, mouse, given in CrEL drug dosage form
[6] = female, BALB/c, mouse, given in DcNP dosage form

Row | Compound | peak intracellular drug concentration (HL-60 cells; HL-60, incubation with DcNP's) | peak intracellular drug concentration (HL-60 cells; [4]) | AE % (association efficiency with the DcNP lipid platform) ([1]; with TWEEN20, day 1) | AE % (association efficiency with the DcNP lipid platform) ([1]; with TWEEN20, day 70) | AE % (association efficiency with the DcNP lipid platform) ([1]; without TWEEN20, day 1) | AE % (association efficiency with the DcNP lipid platform) ([1]; without TWEEN20, day 70) | Median survival (metastatic breast cancer; first-line treatment, combination versus paclitaxel only) | response rate (metastatic breast cancer; gemcitabine 1250 mg/m^2 IV day 1, day 8 and paclitaxel 175 mg/m^2 IV combination compared to paclitaxel alone) | decrease in Cmax, GT DcNP compared to CrEL [2] | Cmax ([2]; female, BALB/c, mouse, given in CrEL drug dosage form, read-out: Cmax) | AUC(0-t) [2, 5] | AUC(0-t) [2, 6] | t1/2apparent ([2]; given in CrEL drug dosage form) | Cmax ([2]; given in DcNP dosage form) | t1/2apparent ([2]; given in DcNP dosage form) | target concentration in plasma [3] | increase in Cmax, GT DcNP compared to CrEL [2] | Cmax ([2]; given in CrEL drug dosage form)
1 | CC1(C)CCC(CN2CCN(c3ccc(C(=O)NS(=O)(=O)c4ccc(NCC5CCOCC5)c([N+](=O)[O-])c4)c(Oc4cnc5[nH]ccc5c4)c3)CC2)=C(c2ccc(Cl)cc2)C1 [Venetoclax, 4-[4-[[2-(4-chlorophenyl)-4,4-dimethylcyclohexen-1-yl]methyl]piperazin-1-yl]-N-[3-nitro-4-(oxan-4-ylmethylamino)phenyl]sulfonyl-2-(1H-pyrrolo[2,3-b]pyridin-5-yloxy)benzamide] | 674 ng/million cells | 192 ng/million cells | 100% | 99.91% | 100% | 100% | – | – | – | – | – | – | – | – | – | – | – | –
2 | CC(=O)O[C@H]1C(=O)[C@@]2(C)[C@H]([C@H](OC(=O)c3ccccc3)[C@]3(O)C[C@H](OC(=O)[C@H](O)[C@@H](NC(=O)c4ccccc4)c4ccccc4)C(C)=C1C3(C)C)[C@]1(OC(C)=O)CO[C@@H]1C[C@@H]2O [Paclitaxel, [(1S,2S,3R,4S,7R,9S,10S,12R,15S)-4,12-diacetyloxy-15-[(2R,3S)-3-benzamido-2-hydroxy-3-phenylpropanoyl]oxy-1,9-dihydroxy-10,14,17,17-tetramethyl-11-oxo-6-oxatetracyclo[11.3.1.0^3,10.0^4,7]heptadec-13-en-2-yl] benzoate] | – | – | – | – | – | – | 15.8 months | 26.2% | ~21% | 17700 ng/mL | 2490 ng·h/mL | 9810 ng·h/mL | 1.81 h | 13900 ng/mL | 1.97 h | – | – | –
3 | C=CC(=O)N1CCC([C@@H]2CCNc3c(C(N)=O)c(-c4ccc(Oc5ccccc5)cc4)nn32)CC1 [Zanubrutinib, (7S)-2-(4-phenoxyphenyl)-7-(1-prop-2-enoylpiperidin-4-yl)-4,5,6,7-tetrahydropyrazolo[1,5-a]pyrimidine-3-carboxamide] | 256 ng/million cells | 69 ng/million cells | 98.52% | 93.05% | 99.99% | 95.50% | – | – | – | – | – | – | – | – | – | – | – | –
4 | Nc1ccn([C@@H]2O[C@H](CO)[C@@H](O)C2(F)F)c(=O)n1 [Gemcitabine, 4-amino-1-[(2R,4R,5R)-3,3-difluoro-4-hydroxy-5-(hydroxymethyl)oxolan-2-yl]pyrimidin-2-one] | – | – | – | – | – | – | – | – | – | – | 15300 ng·h/mL | 868000 ng·h/mL | 1.60 h | 181400 ng/mL | 13.72 h | 3 µg/mL | ~10% | 165.12^b μg/mL
